In patent US8324166B2, “Neuroprotection using NAP-like and SAL-like peptide mimetics” (Ramot at Tel-Aviv University, Ltd., priority 2007, dated 2012):
Values joined by “and” are separate entries in the source; they are usually repeats but may differ in a detail not shown here. Equal entries are not always repeated. Ends that are not written are not given here.

How the values were obtained:
[1] = system: model of fetal alcohol syndrome; conditions: in vivo, ip; cited from earlier work
[2] = system: normal aging rats; conditions: intranasal administration; cited from earlier work
[3] = system: ischemic injury; conditions: after ischemic injury; cited from earlier work
[4] = system: closed head injury in mice; conditions: cited from earlier work
[5] = in vivo; cited from earlier work
[6] = system: cell cultures exposed to a wide variety of toxins; conditions: against a wide variety of toxins; cited from earlier work
[7] = molecular target: beta III tubulin (Homo sapiens, UniProt Q13509); conditions: affinity chromatography; cited from earlier work
Sequence of beta III tubulin (Q13509 whole entry): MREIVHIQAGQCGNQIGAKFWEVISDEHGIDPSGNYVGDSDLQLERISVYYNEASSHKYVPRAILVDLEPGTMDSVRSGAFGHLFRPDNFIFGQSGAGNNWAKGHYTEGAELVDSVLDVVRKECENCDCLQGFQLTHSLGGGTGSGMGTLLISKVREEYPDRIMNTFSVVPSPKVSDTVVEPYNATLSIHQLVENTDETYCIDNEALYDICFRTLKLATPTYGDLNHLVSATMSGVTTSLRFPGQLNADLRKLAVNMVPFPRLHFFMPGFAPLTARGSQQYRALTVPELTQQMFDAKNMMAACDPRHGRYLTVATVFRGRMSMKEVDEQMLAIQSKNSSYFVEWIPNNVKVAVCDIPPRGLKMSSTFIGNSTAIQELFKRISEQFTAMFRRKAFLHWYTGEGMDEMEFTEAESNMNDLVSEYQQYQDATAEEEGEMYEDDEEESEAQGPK
Sequence of beta III tubulin (Q71U36 whole entry partner): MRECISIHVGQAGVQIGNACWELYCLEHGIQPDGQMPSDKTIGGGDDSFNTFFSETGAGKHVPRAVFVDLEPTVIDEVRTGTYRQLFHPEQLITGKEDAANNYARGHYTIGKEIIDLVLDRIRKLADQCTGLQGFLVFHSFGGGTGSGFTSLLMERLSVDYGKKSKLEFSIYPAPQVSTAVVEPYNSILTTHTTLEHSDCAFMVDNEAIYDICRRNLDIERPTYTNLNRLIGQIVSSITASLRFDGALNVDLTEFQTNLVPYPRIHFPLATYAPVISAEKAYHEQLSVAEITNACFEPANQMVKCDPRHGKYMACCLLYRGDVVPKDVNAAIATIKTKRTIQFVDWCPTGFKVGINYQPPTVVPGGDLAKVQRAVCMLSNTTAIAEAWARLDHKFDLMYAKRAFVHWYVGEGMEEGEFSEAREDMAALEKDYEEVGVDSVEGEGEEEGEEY

[8] = system: animal models simulating parts of the Alzheimer's disease pathology; conditions: in vivo; cited from earlier work
[9] = system: neurons of the central nervous system; conditions: in vitro assays and in vivo disease models; cited from earlier work
[10] = system: cerebral cortical astrocytes intoxicated with ZnCl2; assay: MTS assay: survival of astrocytes following intoxication with ZnCl2; type: cell-based, mice
Experimental: Cell cultures were prepared as previously described (McCarthy KD, de Vellis J., J. Cell Biol., 85:890-902 (1980); Gozes I et al., J. Pharmacol. Exp. Ther., 257:959-66 (1991)). Newborn mice (Harlan Biotech Israel Ltd., Rehovot, Israel) were sacrificed by decapitation and the brain was removed. The cortex was dissected and meninges were removed. The tissue was minced with scissors and placed in Hank's balanced salts solution X1 (HBSS, Biological Industries, Beit Haemek, Israel), 15 mM HEPES Buffer pH 7.3 (Biological Industries, Beit Haemek, Israel) and 0.25% trypsin (Biological Industries, Beit Haemek, Israel) in an incubator at 37° C. 10% CO2 for 20 minutes. The cells were then placed in 8 ml of solution D1 containing 10% heat inactivated fetal calf serum (Biological Industries, Beit Haemek, Israel), 0.1% gentamycin sulphate solution (Biological Industries, Beit Haemek, Israel) and 0.1% penicillin-streptomycin-nystatin solution (Biological Industries, Beit Haemek, Israel) in Dulbecco's modified Eagle's medium (DMEM, Sigma, Rehovot, Israel). The cells were allowed to settle, and were then transferred to a new tube containing 2.5 ml of D1 and triturated using a Pasteur pipette. The process was repeated twice more. Once all the cells were suspended, cell density was determined using a hemocytometer (Neubauer improved, Germany) and 1×10^6 cells/15 ml D1 were inoculated into each 75 cm^2 flask (Corning, Corning, N.Y., USA). Cells were incubated at 37° C. 10% CO2. The medium was changed after 24 hours and cells were grown until confluent (one week).
The flasks containing the cerebral cortical astrocytes were shaken to dislodge residual neurons and oligodendrocytes that may be present. Flasks were then washed with 10 ml cold HBSSx1, HEPES15 mM. 5 ml versene-trypsin solution (BioLab, Jerusalem, Israel) was added to each flask and the flasks were incubated at room temperature for 5 minutes to remove astrocytes. The flasks were then shaken to dislodge the cells. The versene-trypsin solution was neutralized with 5 ml D1. The cell suspension was collected and centrifuged at 100 g for 10 minutes. The supernatant was removed and the cells resuspended in D1. The cells were plated in 96 well plates (Corning, Corning, N.Y., USA) (each flask to 2 plates) and incubated until confluent at 37° C. 10% CO2.
The survival of astrocytes following intoxication with ZnCl2 was tested using the MTS assay. One week after sub-culturing the astrocytes into 96-well plates, the astrocyte growth medium was aspirated and fresh medium containing 200μM ZnCl2 and ascending concentrations of NATLSHIHQ (SEQ ID NO:4) or STPTAIPQ (SEQ ID NO:6)(concentration range: 10^−16-10^−7M) was added to the cells. The cells were incubated for 4 hours in 10% CO2 at 37°C., followed by an MTS assay using Celltiter 96 Aqueous non-radioactive cell proliferation assay (Promega, Madison, WI, USA) which was performed according to the manufacturer's instructions and read in an ELISA plate reader at 490nm.

[11] = system: neurons in mixed neuroglial cultures intoxicated with beta-amyloid 1-42; assay: MAP2 assay: neuronal survival in mixed neuroglial cultures following beta-amyloid intoxication; type: cell-based, rat
Experimental: Newborn rats were used to prepare cerebral cortical astrocytes cell cultures as described above. After suspending the cells in D1, they were centrifuged at 100 g for 5 minutes and the supernatant discarded. The cell pellet was resuspended in solution D2 containing 5% heat inactivated horse serum (Biological Industries, Beit Haemek, Israel), 0.1% gentamycin, 0.1% penicillin-streptomycin-nystatin, 1% N3 (defined medium components essential for neuronal development in culture, (Romijn HJ, Brain Res., 254:583-9 (1981)]), 15 μg/ml 5′-fluoro-2-deoxyuridine (FUDR, Sigma, Rehovot, Israel), and 3 μg/ml uridine (Sigma, Rehovot, Israel) in DMEM. Cells were counted in a hemocytometer, diluted in D2 and 17,000 cells/well/96 well plate were seeded on 8-day-old astrocytes prepared as described above. The medium was changed the next day to D2 without FUDR and uridine. Cells were allowed to grow for one week at 37° C. 10% CO2 before experiments were performed.
Neuronal survival in neuroglial cultures following beta-amyloid intoxication was assayed using the neuron specific antibody, MAP2. […] The cells were incubated for 5 days in 10% CO2 at 37°C.
5 days after the addition of beta-amyloid and the peptide, the cells were fixed by removing the media from each well and the addition of cold methanol. The cells were left in the refrigerator overnight. The cells were immunostained with anti-MAP2 as previously described (Brooke S M et al., Neurosci. Lett., 267:21-4(1999)): the methanol was removed and the cells were washed 4 times with phosphate buffered saline (PBS). Blocking for non-specific antibody binding was performed by incubating the cells in 5% non-fat milk in PBS overnight at 4° C. The blocking solution was then removed and anti-MAP2(1:1000; Sigma, Rehovot, Israel) was added to each well. The cells were incubated for 30 minutes at room temperature, followed by 4 washes with PBS. Biotinylated anti-mouse IgG (1:200, Vector Laboratories, Burlingame, Calif., USA) was then added to each well, and the cells were incubated for 30 minutes at room temperature followed by 4 washes with PBS. The cells were incubated at room temperature for 30 minutes with the ABC reagent (Vector Laboratories, Burlingame, Calif., USA) prepared according to the manufacturer's protocol and then washed 4 times with PBS. ABTS reagent, prepared according to the manufacturer's protocol (Vector Laboratories, Burlingame, Calif., USA) was then added to each well and the cells were incubated for 20 minutes in the dark at room temperature. The plates were read in an ELISA plate reader at 405nm. As blanks, wells containing untreated cells and no primary antibody were used.

## Asn-Ala-Pro-Val-Ser-Ile-Pro-Gln [NAP]
[1]
  fetal death after intraperitoneal injection of alcohol: inhibited
[2]
  performance in the Morris water maze: improved performance
[3]
  infarct volume and motor function deficits: reduced infarct volume and motor function deficits
[4]
  damage caused by closed head injury: reducing damage
[5]
  crossing of the blood-brain barrier: can cross the blood-brain barrier
[6]
  neuroprotective activity in cell cultures: neuroprotective activity at femtomolar concentrations
[7]
  interaction with tubulin: specifically interact with beta III tubulin
[8]
  protection in Alzheimer's disease models: protective

## SALLRSIPA
[9]
  neuron survival in response to various insults: keep neurons of the central nervous system alive

## STPTAIPQ (synthetic NAP-like peptide)
[10]; MTS assay, 4 hours, tested 10^−16-10^−7M, significance vs negative control in cell
  effective concentrations on astrocyte survival: Astrocytes (200 μM ZnCl2): 10^−7 (p < 0.05) M
[10]; astrocytes, ZnCl2
  activity in neuroprotection assay: active
[11]; MAP2 assay, 5 days, tested 10^−19M to 10^−5M, significance vs negative control in cell
  effective concentrations on neuronal survival: Neurons (25 μM beta-amyloid): 10^−13 M and 10 ^−5 M
[11]; neuroglial cells, beta-amyloid
  activity in neuroprotection assay: active
